Measured values taken from patent publication US9458122B2, “Process for purifying crude furan 2,5-dicarboxylic acid using hydrogenation” (Eastman Chemical Company, priority 2012, dated 2016).

Assay: solubility of FDCA in water at different temperatures
Format: physicochemical
Conditions: ambient pressure, as water temperature increases beyond 130° C. (FIG. 2)
Protocol: FIG. 2 depicts the solubility of FDCA in water at different temperatures.
Suitable dissolution temperatures are those effective to dissolve the desired amount of FDCA solids into solution. The hydrogenation solvent composition may be added at (by pre-heating) or heated in the dissolution zone to a temperature of at least 120° C. under a pressure and time sufficient to allow for at least 80 wt. % dissolution, although to reduce the time required for dissolution, it is desirable that the hydrogenation solvent composition temperature is at least 130° C., or at least 135° C., or at least 140° C., or at least 150° C.

solubility of FDCA in water: increases dramatically
Compound: O=C(O)c1ccc(C(=O)O)o1 [FDCA, Furan 2,5-dicarboxylic acid]
